In paper PMC10508484, “Development and application of a PBPK modeling strategy to support antimalarial drug development” (CPT: Pharmacometrics & Systems Pharmacology, 2023):
Several values for one entry are separate records, joined by “and”; a condition that tells them apart may be missing. Equal values may be shown once. Read-outs that look alike come from different tables or passages of the source. Each block holds one molecule with its values, some of them ahead of it.

How the values were obtained:
CYP3A4 [1] = molecular target: T1, CYP3A4 (Homo sapiens, UniProt P08684); details: cited from earlier work
T1 sequence (P08684 whole entry): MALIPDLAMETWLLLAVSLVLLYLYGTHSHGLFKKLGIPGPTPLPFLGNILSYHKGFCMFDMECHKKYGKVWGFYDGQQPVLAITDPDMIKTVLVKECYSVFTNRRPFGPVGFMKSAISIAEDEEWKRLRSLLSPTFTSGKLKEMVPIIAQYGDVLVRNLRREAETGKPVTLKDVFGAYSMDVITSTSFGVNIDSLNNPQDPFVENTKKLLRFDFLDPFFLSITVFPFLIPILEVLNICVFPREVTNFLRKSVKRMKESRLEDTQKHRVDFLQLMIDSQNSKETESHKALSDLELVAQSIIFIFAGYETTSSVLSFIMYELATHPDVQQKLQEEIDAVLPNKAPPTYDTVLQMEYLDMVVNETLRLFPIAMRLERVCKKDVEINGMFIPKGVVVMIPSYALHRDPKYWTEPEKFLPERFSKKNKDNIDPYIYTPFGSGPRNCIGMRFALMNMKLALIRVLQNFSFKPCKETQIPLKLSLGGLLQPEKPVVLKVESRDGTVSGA

[2] = PBPK input; ref Charman et al., 2020 1; cited from earlier work
[3] = cited from earlier work
Caco-2 cells = details: cited from earlier work
[4] = cited from earlier work; remark: listed apart in the source
[5] = PBPK input; ref Charman et al., 2020 1; cited from earlier work; remark: listed apart in the source
CYP3A4 [6] = molecular target: T1, CYP3A4
Excerpt: (§1) In nearly all cases the fraction of systemic elimination metabolised by a given enzyme (fm) determined in vitro was unavailable in the literature.

[7] = PBPK simulation of drug-drug interactions (Simcyp V19); set-up: species or system human; details: ratio of simulated to clinically observed AUC ratio; DDI of the respective line of Table S3
Excerpt: Here, we provide three example applications where the available PBPK models were used to address questions relating to DDI assessment. […] Additional simulation methods are provided in Appendix S1.
All simulations, including the ones performed for the applications, were run using Version 19 of the Simcyp population-based PBPK simulator (Simcyp (Certara), Sheffield, UK) and unless stated otherwise, input parameters for all drugs are as specified (Supplementary Information Table S1). All simulations were run using ten virtual trials that were matched as closely as possible to the clinical study volunteers in terms of the number of subjects, their age, the proportion of males/females and according to the same study design.

[8] = In vitro flags for victim and perpetrator properties conferring DDI liability; format: in vitro ADME, human; details: in vitro flag, mainly based on in vitro determinations
[9] = 2020 1, cited from earlier work
CYP2B6 [10] = assay: Metabolism by CYP2B6 (CLint, Vmax, Km, fm); format: in vitro ADME, human; details: fraction metabolised used in the PBPK model (artemether: without induction)
Excerpt: as §1

CYP2B6 [11] = tested on: CYP2B6; set-up: method as in Honda et al., 2011 12; details: ref Honda et al., 2011 12; cited from earlier work
CYP2C9 = details: ref mefloquine Karbwang et al., 1988 58; tafenoquine Charman et al., 2020 1; cited from earlier work
[12] = cited from earlier work; remark: listed apart in the source
[13] = Fraction unbound in human liver microsomes (fumic); details: extrapolated from value measured at 0.4 mg/mL to 0.1 mg/mL, method of Austin et al., 2002
CYP1A2 = details: read-out: CYP1A2 IC50; ref Charman et al., 2020 1; cited from earlier work
[14] = 80 mg BID (Day 22-24) + rifampicin 600 mg QD (Days 1-24), HIV-infected, ref Lamorde et al., 2013 3
[15] = 80 mg BID (Days 13-15) + efavirenz 600 mg QD (Days 1-16), ref Huang et al., 2012 4
[16] = 80 mg SD (Day 1) + ketoconazole 400 mg SD (Day 1), 200 mg QD (Days 2-5), ref Lefevre et al., 2002 2
[17] = calibrated against propranolol, plasma as medium for atovaquone and piperaquine, ref Charman et al., 2020 1

SMILES: CO[C@H]1O[C@@H]2O[C@@]3(C)CC[C@H]4[C@H](C)CC[C@@H]([C@H]1C)[C@@]24OO3 [Artemether, artemether]
CYP3A4 Vmax reported (CYP3A4 [1]): 12.3 pmol/min/pmol
Km (CYP3A4 [1]): 8.24 µM
Log P [2]: 3.7
AUC ratio Obs [3, 14]: 0.11
Cmax ratio Obs [3, 14]: 0.18
AUC ratio Obs [3, 15]: 0.49
Cmax ratio Obs [3, 15]: 0.79
AUC ratio Obs [3, 16]: 2.51
Cmax ratio Obs [3, 16]: 2.24
Caco-2 (Papp A-B) (Caco-2 cells; [17]): 42.7 10-6 cm/s
AUC Obs ([4]; 80 mg BID (Day 3 PM), 60-72 h, ref Huang et al., 2012 8): 59.5 ng·h/mL
AUC Obs ([4]; 80 mg BID (Day 3 PM), 62-72 h, ref Lefevre et al., 2002 7): 61.4 ng·h/mL
Cmax Obs ([4]; 80 mg BID (Day 3 PM), ref Huang et al., 2012 8): 21.2 ng/mL
Cmax Obs ([4]; 80 mg BID (Day 3 PM), ref Lefevre et al., 2002 7): 30.8 ng/mL
AUC Obs ([4]; 80 mg SD, Indian, 0-inf, ref Lefevre et al., 2013 6): 408 ng·h/mL
Cmax Obs ([4]; 80 mg SD, Indian, ref Lefevre et al., 2013 6): 113 ng/mL
AUC Obs ([4]; 80 mg SD, 0-inf, ref Lefevre et al., 2002 5): 320 ng·h/mL
Cmax Obs ([4]; 80 mg SD, ref Lefevre et al., 2002 5): 104 ng/mL
fu [5]: 0.038
fmCYP3A4 (CYP3A4 [6]): 53%
AUC ratios Sim/Obs [7]: 1.00 and 1.08 and 1.15
Risk as a perpetrator [8]: CYP2B6 inducer
Risk as a victim [8]: Substrate of CYP2B6 and CYP3A4
B:P ([9]; PBPK input, ref artemether Colussi et al., 1999 11, atovaquone Rolan et al., 1997 14, Beerahee, 1999 16, Charman et al., azithromycin Pene Dumitrescu et al., 2013 21, DEAQ Winstanley et al., 1987 9, proguanil weighted mean Helsby et al., 1993 61, Wattanagoon et al., 1987 63): 0.8
fmCYP2B6 (CYP2B6 [10]): 47%
CYP2B6 Vmax reported (CYP2B6 [11]): 17.9 pmol/min/pmol
Km (CYP2B6 [11]): 1.95 µM

fmCYP3A4 (CYP3A4 [6]): 95%
CLint CYP3A4 (CYP3A4 [6]; microsomes): 0.168 µL/min/pmol
Risk as a victim [8]: Substrate of CYP3A4
SMILES: OC(c1cc(C(F)(F)F)nc2c(C(F)(F)F)cccc12)C1CCCCN1 (stereo not shown) [Mefloquine, mefloquine]
Ki (CYP2C9): 260 µM
CL PO ([12]; in vivo, po): 2.09 L/h
CL renal ([12]; in vivo): 0.07 L/h
Caco-2 (Papp A-B) (Caco-2 cells; Caco-2): 66 10-6 cm/s
AUC Obs ([4]; in vivo, 250 mg): 116000 ng·h/mL
Cmax Obs ([4]; in vivo, 250 mg): 310 ng/mL
AUC Obs ([4]; in vivo, 750 mg): 393500 ng·h/mL
AUC Obs ([4]; in vivo, 1000 mg): 516000 ng·h/mL
Cmax Obs ([4]; in vivo, 1000 mg): 960 ng/mL
Cmax Obs ([4]; in vivo, 1500 mg): 1440 ng/mL

fumic [13]: 0.84
Risk as a perpetrator [8]: CYP1A2 inhibitor
Risk as a victim [8]: Substrate of MAO and CYP2D6
SMILES: COc1cc(NC(C)CCCN)c2ncccc2c1 (stereo not shown) [Primaquine, primaquine]
CL IV ([12]; clinically observed, ref atovaquone Lavelle et al., 1994 17, chloroquine Walker et al., 1987 29, Gustafsson et al., 1983 30, doxycycline Raghuram et al., 1982 48, Nguyen et al., 1989 49, primaquine Mihaly et al., 1985 26, quinine White et al., 1983 77, Paintaud et al., 1993 78): 24.2 L/h
fe (fraction excreted unchanged in urine) ([12]; ref atovaquone Rolan et al., 1997 14, mefloquine Schwartz et al., 1982 57, primaquine White, 1985 62, proguanil (extensive metabolisers) Jeppesen et al., 1997 34, pyronaridine Wattanavijitkul, 2010 74, sulfadoxine assumed with Edstein, 1987 83): < 0.01%
Caco-2 (Papp A-B) (Caco-2 cells; [17]): 29 10-6 cm/s
AUC Obs ([4]; 15 mg QD (Day 14), 0-inf, ref Ward et al., 1985 14): 443 ng·h/mL
Cmax Obs ([4]; 15 mg QD (Day 14), ref Ward et al., 1985 14): 66 ng/mL
AUC Obs ([4]; 15 mg SD, 0-inf, ref Mihaly et al., 1985 12): 500 ng·h/mL
AUC Obs ([4]; 15 mg SD, 0-inf, ref Ward et al., 1985 14): 468 ng·h/mL
Cmax Obs ([4]; 15 mg SD, ref Mihaly et al., 1985 12): 53 ng/mL
Cmax Obs ([4]; 15 mg SD, ref Ward et al., 1985 14): 65 ng/mL
AUC Obs ([4]; 30 mg SD, 0-inf, ref Hanboonkunupakarn et al., 2014 13): 1130 ng·h/mL
AUC Obs ([4]; 30 mg SD, 0-inf, ref Jittamala et al., 2015 15): 1180 ng·h/mL
Cmax Obs ([4]; 30 mg SD, ref Hanboonkunupakarn et al., 2014 13): 128 ng/mL
Cmax Obs ([4]; 30 mg SD, ref Jittamala et al., 2015 15): 139 ng/mL
AUC Obs ([4]; 45 mg SD, 0-inf, ref Mihaly et al., 1985 12): 1700 ng·h/mL
Cmax Obs ([4]; 45 mg SD, ref Mihaly et al., 1985 12): 176 ng/mL
fu [5]: 0.26
IC50 (CYP1A2): < 0.25 µM
B:P ([9]; ref Charman et al.): 0.82
